Tests used:
[1] = test system: BFTC-905 (Bladder Carcinoma); assay: Bliss excess, mean over the matrix (fraction); higher = more synergy
How it was run: (§1)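 Cell lines in DMEM/F12 or RPMI with 10% FBS were plated in 1536-well plates, held 24 hours at 37°C, 5% CO2, then given two-drug dose matrices for 72 hours (DMSO typically 0.2%). Viability was read by CellTiter-Glo 2.0 luminescence and scaled as inhibition from 0 (vehicle wells) to 1 (blank wells). Combination Emax is the second-highest inhibition in the matrix; Bliss excess is observed combination effect minus expected EA + EB − EA·EB, EA and EB being single-agent effects.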

[2] = test system: BL-41 (Burkitt's Lymphoma); assay: as above
How it was run: as §1

[3] = test system: CAMA-1 (Breast Carcinoma); assay: as above
How it was run: as §1

[4] = test system: DND-41 (T-Lymphoblastic Leukemia); assay: as above
How it was run: as §1

ES1 (Ewing's Sarcoma) [5] = assay: as above
How it was run: as §1

ES8 (Ewing's Sarcoma) [6] = assay: as above
How it was run: as §1

[7] = test system: GR-ST (B-Lymphoblastic Leukemia); assay: as above
How it was run: as §1

[8] = test system: K-562 (Chronic Myelogenous Leukemia); assay: as above
How it was run: as §1

[9] = test system: L-540 (Hodgkin's Lymphoma); assay: as above
How it was run: as §1

[10] = test system: MKN28 (Gastric Carcinoma); assay: as above
How it was run: as §1

[11] = test system: NCI-H1792 (Lung Adenocarcinoma); assay: as above
How it was run: as §1

NCI-H2818 (Mesothelioma) [12] = assay: as above
How it was run: as §1

[13] = test system: SR (Other Blood Carcinomas); assay: as above
How it was run: as §1

[14] = test system: SW1417 (Colorectal Carcinoma); assay: as above
How it was run: as §1

[15] = test system: SW837 (Colorectal Carcinoma); assay: as above
How it was run: as §1

WIL2-NS (Non-Cancerous) [16] = assay: as above
How it was run: as §1

WM-115 (Melanoma) [17] = assay: as above
How it was run: as §1

[18] = test system: BFTC-905 (Bladder Carcinoma); assay: combination Emax (second highest fraction inhibited in the dose matrix, 72 h); higher = more inhibition; extreme values may be limits of the assay
How it was run: as §1

[19] = test system: BL-41 (Burkitt's Lymphoma); assay: as above
How it was run: as §1

[20] = test system: CAMA-1 (Breast Carcinoma); assay: as above
How it was run: as §1

[21] = test system: DND-41 (T-Lymphoblastic Leukemia); assay: as above
How it was run: as §1

ES1 (Ewing's Sarcoma) [22] = assay: as above
How it was run: as §1

ES8 (Ewing's Sarcoma) [23] = assay: as above
How it was run: as §1

[24] = test system: GR-ST (B-Lymphoblastic Leukemia); assay: as above
How it was run: as §1

[25] = test system: K-562 (Chronic Myelogenous Leukemia); assay: as above
How it was run: as §1

[26] = test system: L-540 (Hodgkin's Lymphoma); assay: as above
How it was run: as §1

[27] = test system: MKN28 (Gastric Carcinoma); assay: as above
How it was run: as §1

[28] = test system: NCI-H1792 (Lung Adenocarcinoma); assay: as above
How it was run: as §1

NCI-H2818 (Mesothelioma) [29] = assay: as above
How it was run: as §1

[30] = test system: SR (Other Blood Carcinomas); assay: as above
How it was run: as §1

[31] = test system: SW1417 (Colorectal Carcinoma); assay: as above
How it was run: as §1

[32] = test system: SW837 (Colorectal Carcinoma); assay: as above
How it was run: as §1

WIL2-NS (Non-Cancerous) [33] = assay: as above
How it was run: as §1

WM-115 (Melanoma) [34] = assay: as above
How it was run: as §1
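Throughout, for Bliss excess, mean over the matrix: after 72 h of two-drug dosing.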

| SMILES | Bliss excess [1] | Bliss excess [2] | Bliss excess [3] | Bliss excess [4] | Bliss excess (ES1 (Ewing's Sarcoma) [5]) | Bliss excess (ES8 (Ewing's Sarcoma) [6]) | Bliss excess [7] | Bliss excess [8] | Bliss excess [9] | Bliss excess [10] | Bliss excess [11] | Bliss excess (NCI-H2818 (Mesothelioma) [12]) | Bliss excess [13] | Bliss excess [14] | Bliss excess [15] | Bliss excess (WIL2-NS (Non-Cancerous) [16]) | Bliss excess (WM-115 (Melanoma) [17]) | combination Emax [18] | combination Emax [19] | combination Emax [20] | combination Emax [21] | combination Emax (ES1 (Ewing's Sarcoma) [22]) | combination Emax (ES8 (Ewing's Sarcoma) [23]) | combination Emax [24] | combination Emax [25] | combination Emax [26] | combination Emax [27] | combination Emax [28] | combination Emax (NCI-H2818 (Mesothelioma) [29]) | combination Emax [30] | combination Emax [31] | combination Emax [32] | combination Emax (WIL2-NS (Non-Cancerous) [33]) | combination Emax (WM-115 (Melanoma) [34]) |
| --- | --- | --- | --- | --- | --- | --- | --- | --- | --- | --- | --- | --- | --- | --- | --- | --- | --- | --- | --- | --- | --- | --- | --- | --- | --- | --- | --- | --- | --- | --- | --- | --- | --- | --- |
| C[C@@H]1COCCN1c1cc(C2([S@](C)(=N)=O)CC2)nc(-c2ccnc3[nH]ccc23)n1 [AZD6738] + Nc1ccn([C@@H]2O[C@H](CO)[C@@H](O)C2(F)F)c(=O)n1 [Gemcitabine] (first compound max 10 µM, 7x7, partner max 0.3 µM) | 0.0387 | -0.0007 | 0.0878 | 0.0586 | 0.0203 | 0.0265 | 0.0085 | 0.0537 | -0.0107 | 0.0907 | 0.0362 | 0.0515 | 0.0532 | 0.0802 | 0.065 | 0.0093 | 0.0268 | 0.915 | 1 | 0.587 | 0.921 | 1 | 1 | 0.889 | 0.916 | 0.963 | 0.664 | 0.951 | 0.545 | 1 | 0.77 | 0.779 | 0.985 | 0.659 |
| Cc1cc2ncnn2cc1Nc1ncc2c(n1)n(C1CCOCC1)c(=O)n2C [AZD7648] + COc1cc([C@@H]2c3cc4c(cc3[C@@H](O[C@@H]3O[C@@H]5CO[C@@H](C)O[C@H]5[C@H](O)[C@H]3O)[C@H]3COC(=O)[C@H]23)OCO4)cc(OC)c1O [Etoposide] (first compound max 10 µM, 7x7, partner max 10 µM) | 0.152 | 0.0647 | -0.012 | 0.115 | 0.109 | 0.165 | 0.0727 | 0.114 | 0.108 | 0.0435 | 0.0565 | 0.0361 | 0.193 | 0.0288 | 0.0591 | 0.0553 | 0.0071 | 0.903 | 0.998 | 0.463 | 0.967 | 1 | 0.994 | 0.703 | 0.872 | 0.903 | 0.56 | 0.708 | 0.617 | 1 | 0.382 | 0.358 | 0.981 | 0.481 |
